The source of these data is US7273866B2, “2-aryl thiazole derivatives as KCNQ modulators” (Bristol-Myers Squibb Company, priority 2002, dated 2007).

Structures are written as SMILES.

One assay has as its system peripheral mononeuropathy nerve injury-induced tactile allodynia. The assay is described as follows: Chung model of neuropathic pain (Chung surgery and von Frey test). Format: in vivo, Sprague Dawley rats. The following applies: 100 mg/kg, i.v.; von Frey thresholds over 90 min, rat. The method, then:
Chung model of neuropathic pain (Chung surgery and von Frey test). To test agents for activity against peripheral mononeuropathy nerve injury-induced tactile allodynia, male Sprague Dawley rats (wt. 120-160 g) were surgically prepared with unilateral tight ligation of spinal nerves L5 and L6 following the method of Kim and Chung (Kim S. H., Chung J. M. (1992) Pain, September; 50(3):355-63). After 3-4 weeks recovery, paw withdrawal to light touch was assessed as described by Chaplan et al. (Chaplan S. R., et al., (1994) J. Neurosci Methods, July; 53(1):55-63). […] After acclimation, baseline von Frey thresholds were assessed for the injured hindpaw at −15 min. […] Following drug administration, von Frey thresholds were measured at 15, 30, 60 and 90 min. Data were analyzed by a 2-way repeated measures analysis of variance followed by Dunnett's test (p<0.05). […]
Reversal of neuropathic pain behavior may be expressed as a percentage (0-100%) of the maximum possible effect, over and above the vehicle effects. […]
For example, a compound which immediately reversed neuropathic pain behavior to normal levels, such that animals only responded to the highest von Frey filament (15 g), and maintained normal levels through out the post-drug testing period (90 min) would be calculated as Δ% MPE=100%.
As for `NCC1(CC(=O)O)CCCCC1` [Gabapentin, gabapentin, reference compound], the “AUC (Δ % MPE)” value is reported as 50 (100 mg/kg, i.v.) Δ % MPE.

The test system of the next assay is KCNQ channels. The assay is described as follows: Thallium flux assay for KCNQ channel openers. The class given is cell-based. Particulars: minimal active concentration: lowest concentration giving signal amplitude >= four standard deviations of negative controls; HEK-293 cells stably transfected with a KCNQ family member. The gist of the method: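 HEK-293 lines stably expressing individual KCNQ members, loaded with BTC-AM in chloride-free buffer pH 7.3, compound added (1% DMSO final) before 7.5 mM Tl2SO4 stimulus; fluorescence read 60 s on FLIPR. Minimal active concentration at ≥4 SD above negative controls; EC50 from 10-point logistic fit.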
In the case of `CCN(CC)Cc1ccccc1-c1nc(C(F)(F)F)c(C(=O)NC(C)c2cccc(-c3cccnc3)c2)s1` (centres unmarked) [Example 107], the Min. conc. response was found to be 30 µM. `CC(NC(=O)c1sc(-c2ccccc2CN2CCOCC2)nc1C(F)(F)F)c1cccc(OC(F)(F)F)c1` (centres unmarked) [Example 108] gave a Min. conc. response of 0.3 µM. Turning to `O=C(NCc1cccc(OC(F)(F)F)c1)c1sc(-c2ccccc2CN2CCOCC2)nc1C(F)(F)F` [Example 109], the Min. conc. response is 3 µM. On the same count and under the same terms, with `C[C@H](NC(=O)c1sc(-c2ccccc2CN2CCOCC2)nc1C(F)(F)F)c1cccc(N2CCOCC2)c1` [Example 110] the figure was 3 µM; with `COc1cccc([C@H](C)NC(=O)c2sc(-c3ccccc3CN3CCOCC3)nc2C(F)(F)F)c1` [Example 111], 0.3 µM; with `COc1cccc([C@H](C)NC(=O)c2sc(-c3ccccc3CN3CCN(C)CC3)nc2C(F)(F)F)c1` [Example 112], 30 µM.

Turning to `CCN(Cc1ccncc1)Cc1ccccc1-c1nc(C(F)(F)F)c(C(=O)NC(C)c2cccc(OC(F)(F)F)c2)s1` (centres unmarked) [Example 113], the Min. conc. response was determined as 0.3 µM. `CCN(Cc1ccncc1)Cc1ccccc1-c1nc(C(F)(F)F)c(C(=O)NCc2cccc(OC)c2)s1` [Example 114] returned a Min. conc. response of 3 µM.

For the molecule `CCN(Cc1ccncc1)Cc1ccccc1-c1nc(C(F)(F)F)c(C(=O)N[C@@H](C)c2cccc(N3CCOCC3)c2)s1` [Example 115], the Min. conc. response is 3 µM. On the same count and under the same terms, in the case of `CCN(Cc1ccncc1)Cc1ccccc1-c1nc(C(F)(F)F)c(C(=O)NC(C)c2cccc(CN3CCOCC3)c2)s1` (centres unmarked) [Example 116] it was 3 µM; in that of `CCN(Cc1ccncc1)Cc1ccccc1-c1nc(C(F)(F)F)c(C(=O)NC(C)c2cccc(-c3cccnc3)c2)s1` (centres unmarked) [Example 117], 0.3 µM. Turning to `Cc1cccnc1-c1nc(C(F)(F)F)c(C(=O)N[C@@H](C)c2cccc(N3CCOCC3)c2)s1` [Example 118], the Min. conc. response is 10 µM.

Consider `CC(NC(=O)c1sc(-c2ncccc2CN2CCOCC2)nc1C(F)(F)F)c1cccc(C(F)(F)F)c1` (centres unmarked) [Example 124], for which the Min. conc. response turned out to be 3 µM.
